Patent US9500656B2, “Methods for the identification, assessment, and treatment of patients with cancer therapy” (Millennium Pharmaceuticals, Inc., priority 2006, dated 2016)

Legend:
Assay type in all cases: in vivo, human
[1] = tested on: relapsed or refractory multiple myeloma; test: Open-label randomized study of bortezomib versus high-dose dexamethasone (Protocol M34101-039); conditions: for survival: 22 month median follow-up, 44% events occurred; for One-year survival: in vivo
Procedure: A multicenter, open-label, randomized study was conducted, comprising 627 enrolled patients with relapsed or refractory multiple myeloma (Protocol M34101-039). See Richardson et. al., N. Engl. J. Med., 352:2487-2498 (2005).
Randomization was to be stratified, based on the number of lines of prior therapy (one prior line versus more than one prior line of therapy), time of progression relative to treatment (progression while on their most recent therapy or within 6 months of stopping their most recent therapy, or relapse >6 months after receiving their most recent therapy), and screening β2-microglobulin levels (>2.5 mg/L versus ≦2.5 mg/L).
Patients assigned to the high-dose dexamethasone group received treatment for a maximum of 280 days. Patients in this treatment group received up to four 5-week treatment cycles, followed by up to five 4-week treatment cycles. Within each 5-week treatment cycle, the patient received dexamethasone 40 mg/day PO, once daily on Days 1 to 4, 9 to 12, and 17 to 20 of a 35-day cycle. Within each 4-week treatment cycle, the patient received dexamethasone 40 mg/day PO once daily on Days 1 to 4 of a 28 day cycle.
(§1) During the study, disease response was assessed according to the European Group for Blood and Marrow Transplant (EBMT) criteria as presented in Table C.
See Richardson P G, et al. [submitted NEJM].
Disease progression was determined by Blade criteria as described in Table C and above. […] The date of progression was determined by computer algorithm. P-value from log-rank test adjusted by actual randomization factors. See, Richardson et al., New Engl J Med., submitted.

multiple myeloma [2] = test: Response (EBMT criteria) in the pharmacogenomic patient subset; conditions: for CR (number of patients) / MR (number of patients) / NC (number of patients) / PD (number of patients) / PR (number of patients): study 039, pharmacogenomic patients
Procedure: as §1
A total of 264 patient samples were assessed for pharmacogenomic analyses. These patient samples were collected from the clinical trials of bortezomib for the treatment of multiple myeloma (see Table E). […] All pharmacogenomic analyses relied on the European Group for Blood and Marrow Transplant (EBMT) criteria of response category.

multiple myeloma [3] = test: Phase 2 clinical study M34100-025 (second or greater relapse, refractory to last prior therapy); conditions: bortezomib alone
Source text: (§2) See Richardson P G, et al. N Engl J Med., 348:2609-17 (2003). […] See Jagannath, Br J Haematol. 127:165-72 (2004). Patient samples and response criteria from patients participating in these studies, as well as the following additional studies described below were sought for use in pharmacogenomic analyses to identify markers associated with patient survival.

[4] = tested on: relapsed multiple myeloma; test: Phase 2 clinical study M34100-024 (first relapse)
Source text: as §2

[5] = best confirmed response, bortezomib n = 315, dexamethasone n = 312
[6] = pharmacogenomic set of patients, EBMT criteria
[7] = difference in response rates, bortezomib versus dexamethasone

Compound	survival [1]	Complete Response [1, 5]	Minor Response [1, 5]	Near CR: IF+ [1, 5]	Progressive Disease [1, 5]	SWOG Remission [1, 5]	One-year survival [1]	CR (number of patients) (multiple myeloma [2])	MR (number of patients) (multiple myeloma [2])	NC (number of patients) (multiple myeloma [2])	PD (number of patients) (multiple myeloma [2])	PR (number of patients) (multiple myeloma [2])	also measured
C[C@@H]1C[C@H]2[C@@H]3CCC4=CC(=O)C=C[C@]4(C)[C@@]3(F)[C@@H](O)C[C@]2(C)[C@@]1(O)C(=O)CO [dexamethasone]	24 months	2 (<1) n (%)	52 (17) n (%)	3 (<1) n (%)	41 (13) n (%)	17 (5) n (%)	66%	1	11	16	22	13	Overall Response Rate (CR + PR) [1, 5]: 56 (18) n (%); Partial Response [1, 5]: 54 (17) n (%); CR+PR rate (multiple myeloma [2]; [6]): 22.2%; overall response rate (multiple myeloma [2]; [6]): 39.7%
CC(C)C[C@H](NC(=O)[C@H](Cc1ccccc1)NC(=O)c1cnccn1)B(O)O [bortezomib, N-pyrazinecarbonyl-L-phenylalanine-L-leucineboronic acid]	30 months	20 (6) n (%)	25 (8) n (%)	21 (7) n (%)	22 (7) n (%)	46 (15) n (%)	80%	5	5	19	13	25	CR+PR rate (multiple myeloma [3]; 53 of 193 patients): 27%; overall response rate (CR+PR+MR) (multiple myeloma [3]; 67 of 193 patients): 35%; CR+PR rate ([4]; bortezomib 1.0 mg/m^2): 30%; CR+PR rate ([4]; bortezomib 1.3 mg/m^2): 38%; decrease in risk of death ([1]; bortezomib group versus dexamethasone, first year after enrollment): 41%; Difference (95% CI), CR + PR + MR [1, 7]: 0.12 (0.04, 0.19); Difference (95% CI), Complete Response [1, 7]: 0.06 (0.03, 0.09); Difference (95% CI), Minor Response [1, 7]: −0.09 (−0.14, −0.04); Difference (95% CI), Near CR: IF+ [1, 7]: 0.06 (0.03, 0.09); Difference (95% CI), No Change [1, 7]: −0.04 (−0.12, 0.04); Difference (95% CI), Overall Response Rate (CR + PR) [1, 7]: 0.20 (0.14, 0.27); Difference (95% CI), Partial Response [1, 7]: 0.15 (0.08, 0.21); Difference (95% CI), Progressive Disease [1, 7]: −0.06 (−0.11, −0.01); Difference (95% CI), SWOG Remission [1, 7]: 0.09 (0.05, 0.14)
